# Measurements: patent publication US11472814B2, “Thienopyranones and furanopyranones as checkpoint inhibitors and modulators of anti-tumor immunity” (SignalRx Pharmaceuticals, Inc., priority 2017, dated 2022)
# pIC50: −log10 of the molar value. Entries after “also recorded” stand apart in the source; their conditions may differ.
# Key:
# SYK = molecular target: T1, SYK (Homo sapiens, UniProt P43405); assay: SYK inhibition IC50 (Reaction Biology Corp.); format: biochemical; details: 10-point curve; read-out: SYK IC50
# T1 construct: purchased Reaction Biology Corp., Malvern, Pa; (contract assay service)
# Excerpt: (§1) The inhibitory activity of a compound of the invention against PI3K and/or BRD4 and/or SYK and/or CDK4/6 can be readily determined using methods known to the skilled artisan, or by commercial vendors offering such services. […] In vivo, PI3K inhibition can be determined from target tissue biopsies by standard tissue processing to disrupt cells and then performing Western Blot analysis to determine the presence or absence of pAKT (substrate of PI3K) relative to a control sample. The activity of a compound of the invention as an inhibitor of a bromodomain-containing protein, such as a BET protein, such as BRD2, BRD3, BRD4, and/or BRDT, or an isoform or mutant thereof, may be determined in vitro, in vivo, or in a cell line. In vitro assays include assays that determine inhibition of bromodomain-containing proteins. Alternatively, inhibitor binding may be determined by running a competition experiment where a provided compound is incubated with a bromodomain-containing protein, such as a BET protein bound to known ligands, labeled or unlabeled. For example, bromodomain inhibition can be determined in vitro using Alpha Screen Technology (http://www.reactionbiologv.com/webapps/site/NewsPDFs/Bromodomain%20Assay %20Platform %20for %20Drug %20Screening %20and %20Discovery.pdf). In vivo bromodomain inhibition can be determined indirectly by evaluating the amount of protein present of proteins whose genes' transcription is influenced or controlled by the bromodomain protein, for example, the MYCN protein transcription is controlled by BRD4 (J. E. Delmore et al., Cell 2011, 146, 904-917; A. Puissant, Cancer Discov. 2013, 3, 308-323). Bromodomain inhibition may also be predicted by in silico modeling as described below in the Examples. Additionally, the company Promega offers a SYK luminescent assay to determine a compound's ability to inhibit the SYK protein (https://www.promega.com/-/media/files/resources/protocols/kinase-enzyme-appnotes/syk-kinase-assay-protocol.pdf?la=en).
# Compounds of the invention were characterized for their ability to inhibit target proteins using third party vendors offering such services. PI3K alpha, gamma, and delta inhibition activity was determined by Thermo Fisher Scientific-Biosciences Life Sciences Solutions, Madison, Wis. The bromodomain protein inhibition (binding domain 1 and 2 of BRD4) as well as SYK inhibition was determined at Reaction Biology Corp., Malvern, Pa. Additional information on each of the assays performed and services provided is available at each company's website on the internet (https://www.thermofisher.com/us/en/home/life-science.html and http://www.reactionbiology.com/webapps/site, respectively). The IC50 data (shown below in Table 5) was calculated from a 10-point curve and is expressed in nanomolar concentration (nM) rounded off to the nearest whole number. Where multiple values were obtained the range from lowest to highest values is presented. NI=no inhibition detected up to 50 uM or IC50 not reached at 50 uM.
# BRD4-2 = molecular target: T2, BRD4-2 (Homo sapiens, UniProt O60885); assay: Bromodomain protein inhibition IC50, binding domain 2 of BRD4 (Reaction Biology Corp.); details: 10-point curve
# T2 construct: purchased Reaction Biology Corp., Malvern, Pa; (contract assay service)
# Excerpt: as §1
# Compounds of the invention were characterized for their ability to inhibit target proteins using third party vendors offering such services. PI3K alpha, gamma, and delta inhibition activity was determined by Thermo Fisher Scientific-Biosciences Life Sciences Solutions, Madison, Wis. The bromodomain protein inhibition (binding domain 1 and 2 of BRD4) as well as SYK inhibition was determined at Reaction Biology Corp., Malvern, Pa. […] The IC50 data (shown below in Table 5) was calculated from a 10-point curve and is expressed in nanomolar concentration (nM) rounded off to the nearest whole number. […]
# [1] = test system: Bone marrow derived macrophages (BMDMs), M1 gene expression; assay: M1 marker mRNA in LPS stimulated bone marrow derived macrophages (RT PCR); format: cell-based, murine
# Excerpt: […] M2 markers Mmr, Ym1, Fizz1 and Mgl mRNA and M1 markers I11, 116 and Tnfa mRNA was quantitated by RT PCR. Values are mean±SEM (n=3-4). Expression of gene of interest is normalized to GAPDH. […] The data provide direct evidence that Compound 1 can block the immunosuppressive macrophage M2 gene expression and activate the M1 gene expression and therefore activate antitumor innate immune cell differentiation in vitro.
# Relative mRNA expression of IL4 or LPS polarized genes in murine bone marrow derived macrophages (BMDMs) treated with various concentrations of inhibitors in vitro. Conclusion: Compound 3 suppressed in vitro macrophage specific immunosuppressive M2 gene expression markers and augmented macrophage stimulatory immune response M1 genes respectively.
# [2] = test system: LLC tumors, Ifng and Gzmb mRNA; assay: mRNA expression of Ifng and Gzmb in LLC tumors; format: in vivo, mice; details: normalized to GAPDH
# Description: Effect of Compound 3 treatment in vivo at 10 mg/kg dose on mRNA expression of interferon (Ifng) gamma and granzyme b (Gzmb) in LLC tumors implanted in vehicle vs Compound 3 treated mice (n=3, biological replicates, p<0.05, t test). Relative gene expression is normalized to a house keeping gene, GAPDH for comparison.
# CT26 tumor cells = assay: In vitro viability of CT26 tumor cells; format: cell-based; details: for % Cell Viability: CT26 tumor cells in vitro
# Excerpt: (§2) We investigated the effect of Compound 3 on immune cell in vitro and on tumor growth in in vivo in immunocompetent syngeneic tumor models and the effects on the macrophage and T cell immune compartment in vivo by this compound. […] In order to distinguish whether Compound 3 blocks tumor growth due to its effect on immune cell compartment and not on tumor compartment, we tested the effect of this chemotype on CT26 tumor growth in immunodeficient NSG mice vs immunocompetent Balb/c mice. […] Compound 3 has combinatorial immune-oncologic activity in vivo to stimulate anti-cancer innate and adaptive immunity in well-defined accepted immune competent murine models for cancer immunotherapy.
# Compound 3 has no effect on the in vitro viability of CT26 tumor cells.
# CT26 tumors = assay: CT26 tumor growth in immunodeficient NSG mice; format: in vivo; details: 3 mg/kg
# Excerpt: as §2
# Conclusion: this establishes effect of Compound 3 as immune-oncologically active agent in cancer immunotherapy. In immunocompetent mice with same tumor cell ino kculum Compound 3 inhibited CT26 tumor growth by 58% decrease in tumor volume. (n=x, p<0.001, t test).
# MC38 tumors = assay: MC38 tumor growth in immunocompetent murine model; format: in vivo; details: vs vehicle
# Excerpt: as §2
# In contrast to above data, Compound 3 has a marked significant inhibitory effect on CT26, LLC and MC38 tumor growth in immunocompetent murine models. Conclusion: this establishes effect of Compound 3 as immune-oncologically active agent in cancer immunotherapy. In immunocompetent mice with same tumor cell inoculum Compound 3 inhibited tumor growth by from 58-68%. p<0.001 in all experiments compared to vehicle control.
# [3] = Table 8, 200 nM, LPS polarized murine BMDMs, control = 1
structure (smiles),measurement,setting,value
"Cc1nn(-c2ccnc(Nc3ccc(-c4csc5c(=O)cc(N6CCOCC6)oc45)cc3)n2)cc1CN1CCC1 [Compound 3, 3-[p-(4-{4-[(1-Azetidinyl)methyl]-3-methyl-1H-pyrazol-1-yl}-2-pyrimidinylamino)phenyl]-5-morpholino-4-oxa-1-thia-7-indenone]",pIC50,SYK,> 7.00
same,pIC50,BRD4-2,5.30 to 6.00
same,Ifng relative mRNA expression (M1 gene),[1]; [3],5.043 ± 1.9
same,Il1 relative mRNA expression (M1 gene),[1]; [3],7.19 ± 0.9
same,Il6 relative mRNA expression (M1 gene),[1]; [3],2.5 ± 0.2
same,Nos2 relative mRNA expression (M1 gene),[1]; [3],2.458 ± 0.31
same,Tnfa relative mRNA expression (M1 gene),[1]; [3],2.2 ± 0.3
same,macrophage stimulatory immune response M1 genes,"[1]; murine BMDMs, LPS polarized, various concentrations",augmented
same,Ifng mRNA expression in LLC tumors,"[2]; 10 mg/kg in vivo, n=3, vehicle 0.8 ± 0.18","1.4 ± 0.27,"
same,Gzmb mRNA expression in LLC tumors,"[2]; 10 mg/kg in vivo, n=3, vehicle 0.87 ± 0.27",1.87 ± 0.5
same,expression of Ifng and Gzmb in LLC tumors,"[2]; 10 mg/kg, vs vehicle","increased expression of the inflammatory cytokines, Ifng and GzmB; also recorded: increased the expression of immunostimulatory T cell immune effectors"
same,in vitro viability of CT26 tumor cells,CT26 tumor cells,didn't show any effect; also recorded: no effect
same,% Cell Viability,CT26 tumor cells; Log Inhibitor conc. 1.68867,96.5 ± 5.3%
same,% Cell Viability,CT26 tumor cells; Log Inhibitor conc. 1.9897,96 ± 8.0%
same,% Cell Viability,CT26 tumor cells; Log Inhibitor conc. 2.29073,91.6 ± 8.9%
same,% Cell Viability,CT26 tumor cells; Log Inhibitor conc. 2.59176,91.3 ± 5.13%
same,% Cell Viability,CT26 tumor cells; Log Inhibitor conc. 2.89279,89.8 ± 6.7%
same,% Cell Viability,CT26 tumor cells; Log Inhibitor conc. 3.19382,87.3 ± 4.1%
same,% Cell Viability,CT26 tumor cells; Log Inhibitor conc. 3.49485,87.1 ± 9.6%
same,% Cell Viability,CT26 tumor cells; Log Inhibitor conc. 3.79588,84.3 ± 4.3%
same,% Cell Viability,CT26 tumor cells; Log Inhibitor conc. 4.09691,83.9 ± 6.27%
same,% Cell Viability,CT26 tumor cells; Log Inhibitor conc. 4.39794,83.6 ± 5.1%
same,% Cell Viability,CT26 tumor cells; Log Inhibitor conc. 4.69897,77.4 ± 5.0%
same,% Growth inhibition,"CT26 tumors; CT26 tumors in immunodeficient NSG mice, negative = increase in tumor growth",−33 ± 27%
same,CT26 tumor growth in NSG mice,CT26 tumors; immunodeficient NSG mice,did not reduce CT26 tumor growth; also recorded: no significant effect
same,% Growth inhibition of MC38 tumor,MC38 tumors,62 +/− 24%
